Structures can show the parent of a compound that is named as a salt.
Legend:
BMDMs [1] = assay: ELISA of cytokine release from BMDMs; format: cell-based, mouse; conditions: for IL-6 release / IL-10 release / TNF-α release: BMDMs pre-treated 3 h
Protocol: (§1) All compounds used DMSO as a vehicle except for 4-hydroxy tamoxifen (EtOH), NAC (PBS), and AOAA for tracing experiments (Media). LPS was used at a concentration of 100 ng/ml for indicated timepoints (2, 3, 4, 6, 8, 24, 48 h). FHIN1 (10 or 20 μM), MMF (50 or 100 μM), DMF (25 μM), AOAA (5 mM), oligomycin (10 μM), CCCP (50 μM) NAC (1 mM), and IMT1 (10 μM) pre-treatments were performed for 3 h prior the addition of LPS. Cells were treated with valinomycin (10 nM) 15 mins before LPS stimulation. Anti-CD210 or IgG control (10 μg/ml) antibodies were added to cells 1 h prior to LPS stimulation. Recombinant mouse IL-10 protein (100 ng/ml) was added to cells at the same time as LPS. Cells were treated with IFN-B1 (220 ng/ml) for 3 h. Cells were treated with C-178 (1 μM) 1 h prior to LPS stimulation or transfection with 2′3′-cGAMP (1.5 μg/ml) for 4 hrs to achieve cGAS-STING activation. Cells were treated with ODN 2088 (1 μM) for 1 hr prior to LPS stimulation or transfection with CPG ODN 1826 (1.5 μg/ml) to achieve TLR9 activation. 3 different timepoints of 4-hydroxy tamoxifen (TAM) (600 nM or 2 μM) or EtOH treatment were performed-these are specified in the individual figure legends. For ‘48 h’ treatments EtOH/TAM was added on day 5 of 6 during the BMDM differentiation protocol. On day 6 they were plated with EtOH/TAM (left overnight) and treated the following day. For ‘72 h’ treatments EtOH/TAM was added on day […] of 6 during the BMDM differentiation protocol. On day 6 they were plated with EtOH/TAM (left overnight) and treated the following day. For ‘96 h’ treatments EtOH/TAM was added on day […] of 6 during the BMDM differentiation protocol. On day 6 they were plated with EtOH/TAM and treated 2 days later.
Pre-designed silencer select siRNAs for Cgas (s103166), Tmem173 (s91058), Tlr3 (s100579), Tlr9 (s96268), As/(s99640), Tlr7 (s100720), Ddx58 (s106376), Ifih1 (s89787), Nrf2 (s70522), Atf4 (s62689) and negative control (4390843) were ordered from Thermo Fisher. siRNA sequences are given in Table S2. Cells were transfected with 50 nM siRNA using 5 μl lipofectamine RNAiMAX according to manufacturer's instructions (Thermo Fisher). Cells were transfected in medium without serum and antibiotics which was replaced with complete medium 8 hours later. Cells were subsequently left for at least a further 12 hours prior to treatment.
BMDMs were plated in the presence or absence of ultrapure ethidium bromide (100 ng/ml) and incubated for a further 6 days prior to treatment. Depletion of mtDNA was determined by genomic DNA isolation followed by qPCR using primers specific for areas of mitochondrial DNA (D-loop) and areas of mtDNA that are not inserted into nuclear DNA (Non-NUMT).
DuoSet ELISA kits for IL-1β, TNFα, IL-6, IL-10, and GDF15 were purchased from R&D Systems and were carried out according to the manufacturer's instructions with appropriately diluted cell supernatants added to each plate in duplicate or triplicate. IFN-β was determined using DuoSet ELISA kit from R&D Systems or Abcam (ab252363). Quantikine ELISA kit for IFN-β (R&D Systems) was used for determination of IFN-β concentration in serum samples and from human cells, and these were also carried out according to the manufacturer's instructions. Absorbance at 450 nm was quantified using a FLUOstar Optima plate reader. Corrected absorbance values were calculated by subtracting the background absorbance, and cytokine concentrations were subsequently obtained by extrapolation from a standard curve plotted on GraphPad Prism 9.2.0.

BMDMs [2] = assay: LC-MS steady-state metabolomics / fumarate levels in BMDMs; format: cell-based, mouse; conditions: LPS 4 h; for ratios of ATP/ADP, ATP/AMP, and P-creatine/creatine: BMDMs pre-treated 3 h (FHIN1 10 or 20 μM, DMF 25 μM)
Protocol: as §1
BMDMs (3 independent mice) were plated at 0.5×10^6 cells/well in 12-well plates in technical triplicate per condition, treated as indicated, snap frozen and stored at −80° C. For metabolomics on cytosolic fraction, BMDMs were plated at 10×10^6 cells/10 cm dish and rapid fractionation was performed as previously reported^16. Metabolite extraction solution (MES) (methanol/acetonitrile/water, 50:30:20 v/v/v) was added (0.5 mL per 1×10^6 cells) and samples were incubated for 15 min on dry ice. The resulting suspension was transferred to ice-cold microcentrifuge tubes. Samples were agitated for 20 min at 4° C. in a thermomixer and then incubated at −20° C. for 1 h. Samples were centrifuged at maximum speed for 10 min at 4° C. The supernatant was transferred into a new tube and centrifuged again at maximum speed for 10 min at 4° C. The supernatant was transferred to autosampler vials and stored at −80° C. prior to analysis by LC-MS.
HILIC chromatographic separation of metabolites was achieved using a Millipore Sequant ZIC-PHILIC analytical column (5 μm, 2.1×150 mm) equipped with a 2.1×20 mm guard column (both […] particle size) with a binary solvent system. Solvent A was 20 mM ammonium carbonate, 0.05% ammonium hydroxide; Solvent B was acetonitrile. The column oven and autosampler tray were held at 40° C. and 4° C., respectively. The chromatographic gradient was run at a flow rate of 0.200 mL/min as follows: 0-2 min: 80% B; 2-17 min: linear gradient from 80% B to 20% B; 17-17.1 min: linear gradient from 20% B to 80% B; 17.1-22.5 min: hold at 80% B. Samples were randomized and analysed with LC-MS in a blinded manner and the injection volume was 5 μl. Pooled samples were generated from an equal mixture of all individual samples and analysed interspersed at regular intervals within sample sequence as a quality control. Metabolites were measured with a Thermo Scientific Q Exactive Hybrid Quadrupole-Orbitrap Mass spectrometer (HRMS) coupled to a Dionex Ultimate 3000 UHPLC or with Vanquish Horizon UHPLC coupled to an Orbitrap Exploris 240 mass spectrometer (both Thermo Fisher Scientific) via a heated electrospray ionization source. […]

SMILES | IL-6 release (BMDMs [1]; LPS 4 h) | IL-10 release (BMDMs [1]; LPS 4 h) | TNF-α release (BMDMs [1]; LPS 4 h) | ratios of ATP/ADP, ATP/AMP, and P-creatine/creatine (BMDMs [2]) | GDF15 release (BMDMs [1]; BMDMs pre-treated, LPS 4 h) | LPS-induced IFN-β release (BMDMs [1]; BMDMs pre-treated, LPS 4 h) | TNF-α production (BMDMs [1]; BMDMs pre-treated, co-treated with recombinant IL-10 100 ng/ml, LPS 4 h) | LPS-induced IFN-β release in the presence of EtBr (BMDMs [1]; BMDMs treated with EtBr 100 ng/ml 6 days (mtDNA depletion), then FHIN1, LPS 4 h) | augmentation in IFN-β release with knockdown of Tlr3 (BMDMs [1]; BMDMs, siRNA 50 nM, LPS 4 h) | boost in IFN-β release with silencing of Tlr7, Ddx58 (RIG-I) or Ifih1 (MDA5) (BMDMs [1]; BMDMs, siRNA 50 nM, LPS 4 h) | GSSG/GSH ratio (BMDMs [2]; BMDMs pre-treated 3 h) | TCA cycle metabolites including citrate, aconitate, itaconate and succinate (BMDMs [2]; BMDMs pre-treated 3 h) | aconitate/citrate ratio (BMDMs [2]; BMDMs pre-treated 3 h) | fumarate and 2SC accumulation (BMDMs [2]; BMDMs pre-treated 3 h) | glyceraldehyde 3-phosphate (G3P)/2/3-phosphoglycerate (2/3-PG) ratio (BMDMs [2]; BMDMs pre-treated 3 h) | total glutathione (BMDMs [2]; BMDMs pre-treated 3 h)
COC(=O)/C=C/C(=O)OC [DMF, dimethyl fumarate] | reduced | decreased | increased | no effect | – | – | – | – | – | – | – | – | – | – | – | –
CCOC(=O)[C@@]12CCCC=C1N(Cc1ccc(-c3ccccc3)cc1)C(=O)[C@H]2CC(=O)NC [FHIN1, Fumarate hydratase-IN-1] | reduced | decreased | increased | reduced | drove GDF15 release | increase | failed to impair STAT3 phosphorylation or augment TNF-α production | no longer boosted | did not affect | abrogated | unchanged | alterations | decreased | enhanced | increased | depletion
